Values of other authors, collected in patent publication US10813877B2, “Oral care products and methods” (MGE HOLDINGS LLC, priority 2016, dated 2020).

Tested on: cells
Settings: ex vivo

[H]/N=C(\N/C(=N/[H])NCCCCCCNC(=N)NC(=N)Nc1ccc(Cl)cc1)Nc1ccc(Cl)cc1 [chlorhexidine]
cytotoxic effect on cells: cytotoxic effect
